Experiments:
[1] = tested on: ENR+CD organoids (ISC to Paneth cell differentiation); assay: Primary screen: basal (non-stimulated) lysozyme secretion LYZ.NS, 2.5-D 384-well ENR+CD organoid differentiation; type: cell-based, mouse
From the text: (§1) High-throughput screening.

[2] = tested on: ENR+CD organoids (ISC to Paneth cell differentiation); assay: Primary screen: CCh-stimulated lysozyme secretion LYZ.S, 2.5-D 384-well ENR+CD organoid differentiation; type: cell-based, mouse; conditions: primary screen
From the text: as §1

ENR+CD organoids = assay: Primary screen: ATP (CellTiter-Glo 3D, CTG) cell number/viability, 2.5-D 384-well ENR+CD organoids; conditions: primary screen; for Z.CTG: standard z score;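 for all read-outs here: compounds given at plating and again on day 3 over a 6-day differentiation from ENR+CV stem-cell-enriched precursors, ATP measured on day 6, plate median as control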
[3] = primary screen, dose 0.08 uM, standard z score
[4] = primary screen, dose 0.40 uM, standard z score
[5] = primary screen, dose 2.00 uM, standard z score
[6] = primary screen, dose 10.00 uM, standard z score
[7] = primary screen; dose 0.08 uM; FC vs plate median
[8] = primary screen; dose 0.40 uM; FC vs plate median
[9] = primary screen; dose 2.00 uM; FC vs plate median
[10] = primary screen; dose 10.00 uM; FC vs plate median
[11] = dose 0.08 uM, FC vs plate median
[12] = dose 0.40 uM, FC vs plate median
[13] = dose 2.00 uM, FC vs plate median
[14] = dose 10.00 uM, FC vs plate median
[15] = 1st dose row of the treatment (0.08 uM by row order; dose not reprinted)
[16] = 2nd dose row of the treatment (0.40 uM by row order; dose not reprinted)
[17] = 3rd dose row of the treatment (2.00 uM by row order; dose not reprinted)
[18] = 4th dose row of the treatment (10.00 uM by row order; dose not reprinted)

CCN(c1cc(-c2ccc(CN3CCOCC3)cc2)cc(C(=O)NCc2c(C)cc(C)[nH]c2=O)c1C)C1CCOCC1 [EPZ-6438]
Dose.FC.LYZ.NS ([1]; primary screen, dose 0.08 uM): 0.012 log2 fold change
Dose.FC.LYZ.NS ([1]; primary screen, dose 0.40 uM): −0.023 log2 fold change
Dose.FC.LYZ.NS ([1]; primary screen, dose 2.00 uM): 0.015 log2 fold change
Dose.FC.LYZ.NS ([1]; primary screen, dose 10.00 uM): 0.062 log2 fold change
Z.LYZ.NS ([1]; primary screen, standard z score, dose 0.08 uM): 0.108
Z.LYZ.NS ([1]; primary screen, standard z score, dose 0.40 uM): −0.203
Z.LYZ.NS ([1]; primary screen, standard z score, dose 2.00 uM): 0.130
Z.LYZ.NS ([1]; primary screen, standard z score, dose 10.00 uM): 0.538
Dose.FC.LYZ.S ([2]; dose 0.08 uM): 0.003 log2 fold change
Dose.FC.LYZ.S ([2]; dose 0.40 uM): −0.023 log2 fold change
Dose.FC.LYZ.S ([2]; dose 2.00 uM): −0.011 log2 fold change
Dose.FC.LYZ.S ([2]; dose 10.00 uM): 0.046 log2 fold change
Dose.FC.CTG (ENR+CD organoids; dose 0.08 uM): 0.045 log2 fold change
Dose.FC.CTG (ENR+CD organoids; dose 0.40 uM): 0.075 log2 fold change
Dose.FC.CTG (ENR+CD organoids; dose 2.00 uM): −0.068 log2 fold change
Dose.FC.CTG (ENR+CD organoids; dose 10.00 uM): 0.336 log2 fold change

COc1ccccc1N1CCN(CC(O)COc2cccc3ccccc23)CC1 (stereo not shown) [Naftopidil]
Z.LYZ.NS [1, 3]: −0.325
Z.LYZ.NS [1, 4]: −0.713
Z.LYZ.NS [1, 5]: −0.171
Z.LYZ.NS [1, 6]: −0.638
Dose.FC.LYZ.NS [1, 7]: −0.037 log2 fold change
Dose.FC.LYZ.NS [1, 8]: −0.082 log2 fold change
Dose.FC.LYZ.NS [1, 9]: −0.020 log2 fold change
Dose.FC.LYZ.NS [1, 10]: −0.073 log2 fold change
Dose.FC.LYZ.S [2, 11]: 0.015 log2 fold change
Dose.FC.LYZ.S [2, 12]: −0.128 log2 fold change
Dose.FC.LYZ.S [2, 13]: −0.097 log2 fold change
Dose.FC.LYZ.S [2, 14]: −0.079 log2 fold change
Dose.FC.CTG (ENR+CD organoids; [11]): −0.039 log2 fold change
Dose.FC.CTG (ENR+CD organoids; [12]): −0.161 log2 fold change
Dose.FC.CTG (ENR+CD organoids; [13]): −0.179 log2 fold change
Dose.FC.CTG (ENR+CD organoids; [14]): −0.132 log2 fold change

C=CCNC1=C2C[C@@H](C)C[C@H](OC)[C@H](O)[C@@H](C)/C=C(\C)[C@H](OC(N)=O)[C@@H](OC)/C=C\C=C(/C)C(=O)NC(=CC1=O)C2=O [17-AAG (Tanespimycin)]
SSMD.LYZ.NS_Rep (strictly standardized mean difference) ([1]; primary screen, 1st dose row of the treatment (0.08 uM by row order; dose not reprinted)): −1.180
SSMD.LYZ.NS_Rep (strictly standardized mean difference) ([1]; primary screen, 2nd dose row of the treatment (0.40 uM by row order; dose not reprinted)): −1.186
SSMD.LYZ.NS_Rep (strictly standardized mean difference) ([1]; primary screen, 3rd dose row of the treatment (2.00 uM by row order; dose not reprinted)): −1.053
SSMD.LYZ.NS_Rep (strictly standardized mean difference) ([1]; primary screen, 4th dose row of the treatment (10.00 uM by row order; dose not reprinted)): −1.183
Dose.FC.LYZ.NS ([1]; primary screen, dose 0.08 uM): −0.193 log2 fold change
Z.LYZ.NS (standard z score) ([1]; primary screen, dose 0.08 uM): −1.682
Dose.FC.LYZ.NS ([1]; primary screen, dose 0.40 uM): −0.205 log2 fold change
Z.LYZ.NS (standard z score) ([1]; primary screen, dose 0.40 uM): −1.786
Dose.FC.LYZ.NS ([1]; primary screen, dose 2.00 uM): −0.142 log2 fold change
Z.LYZ.NS (standard z score) ([1]; primary screen, dose 2.00 uM): −1.239
Dose.FC.LYZ.NS ([1]; primary screen, dose 10.00 uM): −0.187 log2 fold change
Z.LYZ.NS (standard z score) ([1]; primary screen, dose 10.00 uM): −1.631
SSMD.LYZ.S_Rep (strictly standardized mean difference) [2, 15]: −1.387
Z.LYZ.S (standard z score) [2, 15]: −1.826
SSMD.LYZ.S_Rep (strictly standardized mean difference) [2, 16]: −1.428
Z.LYZ.S (standard z score) [2, 16]: −2.199
SSMD.LYZ.S_Rep (strictly standardized mean difference) [2, 17]: −1.462
Z.LYZ.S (standard z score) [2, 17]: −2.219
SSMD.LYZ.S_Rep (strictly standardized mean difference) [2, 18]: −1.655
Z.LYZ.S (standard z score) [2, 18]: −1.975
Dose.FC.LYZ.S ([2]; dose 0.08 uM): −0.282 log2 fold change
Dose.FC.LYZ.S ([2]; dose 0.40 uM): −0.340 log2 fold change
Dose.FC.LYZ.S ([2]; dose 2.00 uM): −0.343 log2 fold change
Dose.FC.LYZ.S ([2]; dose 10.00 uM): −0.306 log2 fold change
SSMD.CTG.Rep (strictly standardized mean difference) (ENR+CD organoids; [15]): −0.926
SSMD.CTG.Rep (strictly standardized mean difference) (ENR+CD organoids; [16]): −1.023
SSMD.CTG.Rep (strictly standardized mean difference) (ENR+CD organoids; [17]): −1.783
SSMD.CTG.Rep (strictly standardized mean difference) (ENR+CD organoids; [18]): −1.348
Dose.FC.CTG (ENR+CD organoids; dose 0.08 uM): −1.012 log2 fold change
Z.CTG (standard z score) (ENR+CD organoids; dose 0.08 uM): −2.418
Dose.FC.CTG (ENR+CD organoids; dose 0.40 uM): −1.262 log2 fold change
Z.CTG (standard z score) (ENR+CD organoids; dose 0.40 uM): −3.015
Dose.FC.CTG (ENR+CD organoids; dose 2.00 uM): −1.459 log2 fold change
Z.CTG (standard z score) (ENR+CD organoids; dose 2.00 uM): −3.486
Dose.FC.CTG (ENR+CD organoids; dose 10.00 uM): −1.446 log2 fold change
Z.CTG (standard z score) (ENR+CD organoids; dose 10.00 uM): −3.454

O=C(NOCC1CC1)c1ccc(F)c(F)c1Nc1ccc(I)cc1Cl [PD184352 (CI-1040)]
Z.LYZ.NS [1, 3]: −0.162
Z.LYZ.NS [1, 4]: −0.458
Z.LYZ.NS [1, 5]: −1.176
Z.LYZ.NS [1, 6]: −1.011
Dose.FC.LYZ.NS [1, 7]: −0.019 log2 fold change
Dose.FC.LYZ.NS [1, 8]: −0.053 log2 fold change
Dose.FC.LYZ.NS [1, 9]: −0.135 log2 fold change
Dose.FC.LYZ.NS [1, 10]: −0.116 log2 fold change
Dose.FC.LYZ.S [2, 11]: −0.019 log2 fold change
Dose.FC.LYZ.S [2, 12]: −0.047 log2 fold change
Dose.FC.LYZ.S [2, 13]: −0.178 log2 fold change
Dose.FC.LYZ.S [2, 14]: −0.239 log2 fold change
Z.CTG (ENR+CD organoids; dose 0.08 uM): 0.874
Z.CTG (ENR+CD organoids; dose 0.40 uM): 0.624
Z.CTG (ENR+CD organoids; dose 2.00 uM): −0.506
Z.CTG (ENR+CD organoids; dose 10.00 uM): −1.901
Dose.FC.CTG (ENR+CD organoids; [11]): 0.366 log2 fold change
Dose.FC.CTG (ENR+CD organoids; [12]): 0.261 log2 fold change
Dose.FC.CTG (ENR+CD organoids; [13]): −0.212 log2 fold change
Dose.FC.CTG (ENR+CD organoids; [14]): −0.796 log2 fold change

— patent US20220323406A1, “METHODS AND COMPOSITIONS FOR DIFFERENTIATING STEM CELLS” (Massachusetts Institute of Technology, priority 2019, published 2022)
